Converted amounts (≈) assume the structure as drawn.
Key:
[1] = test system: Staphylococcus aureus; test: In vitro antibacterial activity against constitutively MLS B resistant Staphylococcus aureus SR138 strain encoded by an ermA gene; type: functional
[2] = test system: Staphylococcus aureus; test: In vitro antibacterial activity against erythromycin-susceptible Staphylococcus aureus 209P-JC strain; type: functional
[3] = test system: Staphylococcus aureus; test: In vitro antibacterial activity against an inducibly MLS B resistant Staphylococcus aureus B1 strain; type: functional
[4] = test system: Streptococcus pneumoniae; test: In vitro antibacterial activity against erythromycin-susceptible Streptococcus pneumoniae IID553 strain; type: functional
[5] = test system: Staphylococcus aureus; test: In vivo minimum inhibitory concentration against erythromycin susceptible Staphylococcus aureus Smith strain by mouse protection test; type: functional
[6] = test system: Streptococcus pneumoniae; test: In vitro antibacterial activity against MLS-B resistant Streptococcus pneumoniae 221 strain encoded by an erm B gene; type: functional
[7] = test system: Enterococcus faecium; test: In vitro antibacterial activity against erythromycin-susceptible Enterococcus faecium ATCC 19434 strain; type: functional
[8] = test system: Haemophilus influenzae; test: In vitro antibacterial activity against erythromycin-susceptible Hemophilus influenzae ATCC 43095 strain; type: functional
[9] = test system: Enterococcus faecalis; test: In vitro antibacterial activity against erythromycin-susceptible Enterococcus faecalis ATCC 29212 strain; type: functional
[10] = test system: Streptococcus pneumoniae; test: In vitro antibacterial activity against erythromycin efflux resistant Streptococcus pneumoniae 210 strain; type: functional
[11] = test system: Mus musculus; test: In vivo effective dose against erythromycin susceptible Staphylococcus aureus strain Smith by mouse protection test; type: functional
[12] = test system: Enterococcus faecium; test: In vitro antibacterial activity against erythromycin-susceptible Enterococcus faecium ATCC 19434 strain
[13] = test system: Staphylococcus aureus; test: In vitro antibacterial activity against inducibly MLS B resistant Staphylococcus aureus B1 strain; type: functional
[14] = test system: Staphylococcus aureus; test: In vitro antibacterial activity against constitutively MLS B resistant Staphylococcus aureus SR138 strain; type: functional
[15] = test system: Mus musculus; test: (§1) In vivo effective dose against erythromycin susceptible Staphylococcus aureus Smith strain by mouse protection test(95% confidence limits); type: functional
[16] = test system: Staphylococcus aureus; test: In vivo Minimum inhibitory conc against erythromycin susceptible Staphylococcus aureus Smith strain by mouse protection test; type: functional
[17] = test system: Staphylococcus aureus; test: In vivo Minimum inhibitory conc against erythromycin susceptible Staphylococcus aureus strain Smith by mouse protection test; type: functional
[18] = test system: Enterococcus faecium; test: In vitro antibacterial activity against erythromycin-susceptible Enterococcus faecium ATCC 29212 strain; type: functional
[19] = test system: Enterococcus faecalis; test: In vitro antibacterial activity against erythromycin-susceptible Enterococcus faecalis ATCC 19434 strain; type: functional
[20] = test system: Streptococcus pneumoniae; test: In vitro antibacterial activity against constitutively MLS B resistant […] strain encoded by an ermB gene; type: functional
[21] = test system: Streptococcus pneumoniae; test: In vitro antibacterial activity against erythromycin- susceptible Streptococcus pneumoniae IID553 strain; type: functional
[22] = test system: Staphylococcus aureus; test: as §1; type: functional

SMILES	MIC [1]	MIC [2]	MIC [3]	other results
CC[C@H]1OC(=O)[C@H](C)[C@@H](OC(C)=O)[C@H](C)[C@@H](OC2O[C@H](C)C[C@H](N(C)C)C2O)[C@@](C)(OC)C[C@@H](C)C(=O)[C@H](C)[C@@H](O)[C@]1(C)O (stereo partly specified)	> 100 µg/mL	50 µg/mL (≈ 79.1 µM)	> 100 µg/mL	–
CC[C@H]1OC(=O)[C@H](C)[C@@H](O)[C@H](C)[C@@H](OC2O[C@H](C)C[C@H](N(C)C)C2O)[C@@](C)(OC)C[C@@H](C)C(=O)[C@H](C)[C@@H](O)[C@]1(C)O (stereo partly specified)	–	> 100 µg/mL	–	–
CC[C@H]1OC(=O)[C@H](C)[C@@H](OC2CCCCO2)[C@H](C)[C@@H](OC2O[C@H](C)C[C@H](N(C)C)C2O)[C@@](C)(OC)C[C@@H](C)C(=O)[C@H](C)[C@@H](O)[C@]1(C)O (stereo partly specified)	> 100 µg/mL	12.5 µg/mL (≈ 18.5 µM)	> 100 µg/mL	–
CC[C@H]1OC(=O)[C@H](C)[C@@H](OC(=O)Cc2ccc([N+](=O)[O-])cc2)[C@H](C)[C@@H](O[C@@H]2O[C@H](C)C[C@H](N(C)C)[C@H]2O)[C@@](C)(OC)C[C@@H](C)C(=O)[C@H](C)[C@@H](O)[C@]1(C)O	> 100 µg/mL	0.2 µg/mL (≈ 0.266 µM)	0.39 µg/mL (≈ 0.518 µM)	MIC [4]: 0.2 µg/mL (≈ 0.266 µM); MIC [5]: 0.39 µg/mL (≈ 0.518 µM); MIC [6]: > 100 µg/mL; MIC [7]: 0.05 µg/mL (≈ 0.0664 µM); MIC [8]: 25 µg/mL (≈ 33.2 µM); MIC [9]: 0.2 µg/mL (≈ 0.266 µM); MIC [10]: 0.2 µg/mL (≈ 0.266 µM); ED50 [11]: 15.4 mg/kg
CC[C@H]1OC(=O)[C@H](C)[C@@H](OC(=O)Cc2ccccc2)[C@H](C)[C@@H](O[C@@H]2O[C@H](C)C[C@H](N(C)C)[C@H]2O)[C@@](C)(OC)C[C@@H](C)C(=O)[C@H](C)[C@@H](O)[C@]1(C)O	> 100 µg/mL	0.78 µg/mL (≈ 1.1 µM)	> 100 µg/mL	–
CC[C@H]1OC(=O)[C@H](C)[C@@H](OC(=O)CN)[C@H](C)[C@@H](OC2O[C@H](C)C[C@H](N(C)C)C2O)[C@@](C)(OC)C[C@@H](C)C(=O)[C@H](C)[C@@H](O)[C@]1(C)O (stereo partly specified)	> 100 µg/mL	12.5 µg/mL (≈ 19.3 µM)	> 100 µg/mL	–
CC[C@H]1OC(=O)[C@H](C)[C@@H](OC(=O)CC#N)[C@H](C)[C@@H](OC2O[C@H](C)C[C@H](N(C)C)C2O)[C@@](C)(OC)C[C@@H](C)C(=O)[C@H](C)[C@@H](O)[C@]1(C)O (stereo partly specified)	> 100 µg/mL	25 µg/mL (≈ 38.1 µM)	> 100 µg/mL	–
CC[C@H]1OC(=O)[C@H](C)[C@@H](OS(=O)(=O)Cc2ccccc2)[C@H](C)[C@@H](OC2O[C@H](C)C[C@H](N(C)C)C2O)[C@@](C)(OC)C[C@@H](C)C(=O)[C@H](C)[C@@H](O)[C@]1(C)O (stereo partly specified)	–	> 100 µg/mL	–	–
CC[C@H]1OC(=O)[C@H](C)[C@@H](OC(=O)CNC(=O)OCc2ccccc2)[C@H](C)[C@@H](OC2O[C@H](C)C[C@H](N(C)C)C2O)[C@@](C)(OC)C[C@@H](C)C(=O)[C@H](C)[C@@H](O)[C@]1(C)O (stereo partly specified)	> 100 µg/mL	3.13 µg/mL (≈ 4.01 µM)	> 100 µg/mL	–
CC[C@H]1OC(=O)[C@H](C)[C@@H](OC(=O)c2ccc([N+](=O)[O-])cc2)[C@H](C)[C@@H](OC2O[C@H](C)C[C@H](N(C)C)C2O)[C@@](C)(OC)C[C@@H](C)C(=O)[C@H](C)[C@@H](O)[C@]1(C)O (stereo partly specified)	> 100 µg/mL	50 µg/mL (≈ 67.7 µM)	> 100 µg/mL	–
CC[C@H]1OC(=O)[C@H](C)[C@@H](OC(=O)CNC(=O)OC(C)(C)C)[C@H](C)[C@@H](OC2O[C@H](C)C[C@H](N(C)C)C2O)[C@@](C)(OC)C[C@@H](C)C(=O)[C@H](C)[C@@H](O)[C@]1(C)O (stereo partly specified)	> 100 µg/mL	12.5 µg/mL (≈ 16.7 µM)	> 100 µg/mL	–
CC[C@H]1OC(=O)[C@H](C)[C@@H](O[C@H]2C[C@@](C)(OC)[C@@H](O)[C@H](C)O2)[C@H](C)[C@@H](O[C@@H]2O[C@H](C)C[C@H](N(C)C)[C@H]2O)[C@](C)(OC)C[C@@H](C)C(=O)[C@H](C)[C@@H](O)[C@]1(C)O [CLARITHROMYCIN]	–	0.1 µg/mL (≈ 0.134 µM)	–	MIC [4]: 0.05 µg/mL (≈ 0.0668 µM); MIC [6]: > 100 µg/mL; MIC [12]: 1.56 µg/mL (≈ 2.09 µM); MIC [8]: 6.25 µg/mL (≈ 8.36 µM); MIC [9]: 1.56 µg/mL (≈ 2.09 µM); MIC [13]: > 100 µg/mL; MIC [14]: > 100 µg/mL; ED50 [15]: 7.6 mg/kg; MIC [10]: 1.56 µg/mL (≈ 2.09 µM); MIC [16]: 0.2 µg/mL (≈ 0.267 µM)
CC[C@H]1OC(=O)[C@H](C)[C@@H](O[C@H]2C[C@@](C)(OC)[C@@H](O)[C@H](C)O2)[C@H](C)[C@@H](O[C@@H]2O[C@H](C)C[C@H](N(C)C)[C@H]2O)[C@](C)(O)C[C@@H](C)C(=O)[C@H](C)[C@@H](O)[C@]1(C)O [ERYTHROMYCIN]	–	–	–	MIC [17]: 0.2 µg/mL (≈ 0.273 µM); MIC [18]: 1.56 µg/mL (≈ 2.13 µM); MIC [19]: 3.13 µg/mL (≈ 4.26 µM); MIC [20]: > 100 µg/mL; MIC [8]: 6.25 µg/mL (≈ 8.52 µM); MIC [21]: 0.1 µg/mL (≈ 0.136 µM); ED50 [22]: 56.6 mg/kg; MIC [10]: 1.56 µg/mL (≈ 2.13 µM)

— ChEMBL document CHEMBL1134276, “Synthesis and antibacterial activity of acylides (3-O-acyl-erythromycin derivatives): a novel class of macrolide antibiotics” (2001)
